One data set relates to K91 E. coli. Type of data set: cell-based. As to conditions: K91, 9 h, pH 7.4. How it is done: (§1) The biological activities of these peptides were measured using human erythrocytes and E. coli as models for mammalian and bacterial cells, respectively. Hemolysis was monitored in 10 mM Tris, 150 mM NaCl, pH 7.0, while the bacterial assay was conducted in minimal media M9 (Table 1); both of these solutions are sufficiently transparent to allow CD and ultracentrifugation measurements (supplementary material). Under the assay conditions, the peptides gave CD spectra similar to those in Tris buffer, with the exception of H-(β^3-HLeu-β^3-HLys-β^3-HLeu)n-OH, n=5 and 6.
Antibacterial assay was performed by incubation of K 91 E. coli and peptide of different concentrations in minimal media, at pH 7.4. The peptide solution (50 μL) and K 91 E. coli culture (20 μL, grown in minimal media for 24 hr-36 hr) were mixed with 1 mL minimal media. […] The peptide dose required for 50% suppress of bacterial growth was obtained from the smooth fitted OD600 vs. log[peptide] curve.
(§2) The activity and selectivity of peptide 1 and peptide 2 were examined by antibacterial assay and hemolysis experiments. E. Coli and human erythrotytes (RBC) were used as models for bacterial cell and mammalian cell, respectively. The peptide concentration required for 50% bacterial growth suppression (IC50), and peptide concentration required for 50% RBC lysis (HD50) are listed in Table 3. […] The antibacterial activities of peptide 1 and peptide 2 are about the same except peptide 2 has slightly lower IC50. Similar trend has been observed in the previous study, that longer peptide tends to have higher activity. However, the difference in IC50 is much smaller for this series of peptide than the previously studied ones. Antibacterial peptide with good selectivity is usually represented by its low hemolysis ability. […] The HD50 is 670 μM for peptide 1 and 240 μM for peptide 2, which gives a selectivity of 111 for peptide 1 and 60 for peptide 2.

Data set [1] in a line: Hemolysis assay, 50% lysis of RBC's. Format: cell-based, human. As to conditions: 0.25% suspension of human erythrocytes (RBCs). How it is done: as §1
(§3) ∇in M9 medium (data from Hamuro et al., ref. 5) # In M9 medium.+Hemolysis experiments were performed by incubating a 0.25% suspension of human RBc's in 10 mM Tris buffer containing […] at pH 7.0 with varying amounts of peptide. The hemolytic dose required to lyse 50% of the RBC's is reported as the HD50.
(§4) Hemolysis experiments were carried out by incubating 0.25% suspension of human erythrocytes (RBC's) with peptides of different concentrations in 150 mM sodium choloride, 10 mM Tris buffer, pH 7.0. The sample was prepared by combining 400 μL of the RBC suspension and […] of the peptide solution. After incubated the sample at 37— C. for 1 hour, the sample was centrifuged at 14,000 rpm for 5 min, and the OD414 of the supernatant was measured. Mellitin (50 μM) was used to get 100% hemolysis. The hemolytic IC50 was obtained by plotting hemolysis percentage vis. peptide concentration, and the concentration required for 50% hemolysis was determined from the smooth curve-fitted graph.
as §2

The subject of data set [2] is human erythrocytes (RBC's). Put plainly: Hemolysis assay, 50% lysis of RBC's. As to conditions: pH 7. Type of data set: cell-based. The method, then: as §1, §3, §4, §2
For data set [3] the following is noted: In LB medium (data from Oh et al.); cited from earlier work.
For a further data set, the system named is osmY-lux fusion. Put plainly: Stress-induced response assay, induction of osmY-lux fusion. Format: cell-based. As to conditions: Table 4; stress sensed osmotic shock. How it is done:
(§5) Stress-induced response and growth inhibition assays were carried out on samples of four of the β-peptide and compared to known polycationic peptides.
(§6) Polymyxin B was tested both rich, LB, medium and defined, M9, medium. The other natural peptides were tested in LB medium.
(§7) The β-peptides were tested in M9 medium. * In LB medium (data from Oh et al. Biochem. Biophys. Acta. 2000,1463: 43-54)
(§8) However, similar to the magainins, no induction of the micF-lux fusion was observed. Also, the minimum inhibitory concentrations (MIC's) were determined to be higher than those reported in the published manuscript.
(§9) Samples of these β-peptides 1 and 2 were evaluated in the stress-induced response assays.
(§10) The biolumenescence data result from test carried out according to U.S. Pat. No. 5,683,868, Highly Sensitive Method For Detecting Environmental Insults, issued Nov. 4, 1997 to LaRossa et al., the entire contents of the disclosure of are hereby incorporated by reference, The tests described in this patent permit antibacterial properties of peptides or any other materials to be assessed. […] Along these lines, FIG. 5 illustrates a relationship between relative light units and minutes of exposure of bacteria to the various materials in the legend. P×B represents polymyxin, a known antibacterial material. In the graph, a decrease in RULs corresponds to a decrease in bacteria. […]

The subject of the next data set is micF-lux fusion. Put plainly: Stress-induced response assay, induction of micF-lux fusion. Format: cell-based. The settings on record: Table 4; regulatory gene Rob. How it is done: as §5, §6, §7, §8, §9, §10

Where two headings read alike, the source gives them in different places. No end group written: not given here. Where only a bound is given, the exact number is not on record here.

Usually IC50 stands for the concentration at which inhibition is half-maximal. Low readings indicate higher potency, high ones lower potency.

`CC(C)C[C@@H](CC(=O)O)NC(=O)C[C@H](CCCCN)NC(=O)C[C@@H](NC(=O)C[C@H](CC(C)C)NC(=O)C[C@H](CCCCN)NC(=O)C[C@@H](NC(=O)C[C@H](CC(C)C)NC(=O)C[C@H](CCCCN)NC(=O)C[C@@H](NC(=O)OCC1c2ccccc2-c2ccccc21)C(C)C)C(C)C)C(C)C` [Fmoc-(β^3-HVal-β^3-HLys-β^3-HLeu)3-OH, Fmoc-(b^3-HVal-b^3-HLys-b^3-HLeu)3-OH] yielded an IC50 in the data set on K91 E. coli of 15 µM. For the same compound, the HC50 at 1 h in data set [1] (human, pH 7) amounted to 6.3 µM. The same compound returned an HD50+ in data set [2] of 6.3 µM.

In turn, `CC(C)C[C@@H](CC(=O)O)NC(=O)C[C@H](CCCCN)NC(=O)C[C@@H](NC(=O)C[C@H](CC(C)C)NC(=O)C[C@H](CCCCN)NC(=O)C[C@@H](NC(=O)C[C@H](CC(C)C)NC(=O)C[C@H](CCCCN)NC(=O)C[C@@H](N)C(C)C)C(C)C)C(C)C` [H-(β^3-HVal-β^3-HLys-β^3-HLeu)3-OH, H-(b^3-HVal-b^3-HLys-b^3-HLeu)3-OH] displayed a concentration for half-maximal inhibition (IC50) in the data set with K91 E. coli of 41 µM. In addition, the HC50 at 1 h in data set [1] (0.25% human erythrocytes, 10 mM Tris, 150 mM NaCl, pH 7.0, 1 h at 37° C., read-out: Hemolysis HD50) is 86 µM. With `CC(C)C[C@@H](CC(=O)O)NC(=O)C[C@H](CCCCN)NC(=O)C[C@@H](NC(=O)C[C@H](CC(C)C)NC(=O)C[C@H](CCCCN)NC(=O)C[C@@H](NC(=O)C[C@H](CC(C)C)NC(=O)C[C@H](CCCCN)NC(=O)C[C@@H](NC(=O)C[C@H](CC(C)C)NC(=O)C[C@H](CCCCN)NC(=O)C[C@@H](NC(=O)OCC1c2ccccc2-c2ccccc21)C(C)C)C(C)C)C(C)C)C(C)C` [Fmoc-(β^3-HVal-β^3-HLys-β^3-HLeu)4-OH, Fmoc-(b^3-HVal-b^3-HLys-b^3-HLeu)4-OH], the half-inhibitory concentration (IC50) in the data set on K91 E. coli was found to be 1.5 µM. This compound also had an HC50 at 1 h in data set [1] (human, pH 7) of 0.31 µM.

For `CC(C)C[C@@H](CC(=O)O)NC(=O)C[C@H](CCCCN)NC(=O)C[C@@H](NC(=O)C[C@H](CC(C)C)NC(=O)C[C@H](CCCCN)NC(=O)C[C@@H](NC(=O)OCC1c2ccccc2-c2ccccc21)C(C)C)C(C)C` [Fmoc-(β^3-HVal-β^3-HLys-β^3-HLeu)2-OH, Fmoc-(b^3-HVal-b^3-HLys-b^3-HLeu)2-OH], the 50% inhibitory concentration (IC50) in the data set on K91 E. coli is over 100 µM. Moreover, in data set [1] (human, pH 7), the HC50 at 1 h was over 100 µM. On to “Cecropin A (KWKLFKKIEKVGQNIRDGIIKAGPAVAVVGQATQIAK; ends and bridges not checked; UniProt P01507 27-63, looked up) [known polycationic natural peptide]”, for which the “MIC*” value in data set [3] is 0.1 µM. With “Magainin 1 (GIGKFLHSAGKFGKAFVGEIMKS; Magainin-1; UniProt P11006 37-59, looked up) [known polycationic natural peptide (frog skin)]”, the “MIC*” value in data set [3] is 12 µM. With `CC(C)C[C@H](N)CC(=O)N[C@@H](CCCCN)CC(=O)N[C@H](CC(=O)N[C@H](CC(=O)N[C@@H](CCCCN)CC(=O)N[C@H](CC(=O)N[C@H](CC(=O)N[C@@H](CCCCN)CC(=O)N[C@H](CC(=O)N[C@H](CC(=O)N[C@@H](CCCCN)CC(=O)N[C@H](CC(=O)N[C@H](CC(=O)N[C@@H](CCCCN)CC(=O)N[C@H](CC(=O)O)CC(C)C)CC(C)C)CC(C)C)CC(C)C)CC(C)C)CC(C)C)CC(C)C)CC(C)C)CC(C)C` [H-(β^3-HLeu-β^3-HLys-β^3-HLeu)5-OH, H-(b^3-HLeu-b^3-HLys-b^3-HLeu)5-OH], in data set [1] (human, pH 7), the HC50 at 1 h was 0.23 µM. In data set [2], this compound had an HD50+ of 0.23 µM. Polymyxin B: in data set [3], the “MIC*” value was 0.2 µM. In the data set with K91 E. coli, `CC(C)C[C@H](N)CC(=O)N[C@@H](CCCCN)CC(=O)N[C@H](CC(=O)N[C@H](CC(=O)N[C@@H](CCCCN)CC(=O)N[C@H](CC(=O)N[C@H](CC(=O)N[C@@H](CCCCN)CC(=O)N[C@H](CC(=O)N[C@H](CC(=O)N[C@@H](CCCCN)CC(=O)N[C@H](CC(=O)O)CC(C)C)CC(C)C)CC(C)C)CC(C)C)CC(C)C)CC(C)C)CC(C)C` [H-(β^3-HLeu-β^3-HLys-β^3-HLeu)4-OH, H-(b^3-HLeu-b^3-HLys-b^3-HLeu)4-OH] gave an IC50 of 1.7 µM. In addition, the HC50 at 1 h in data set [1] (human, pH 7) amounted to 2.6 µM. For the same compound, the HD50+ in data set [2] is 2.6 µM.

The compound `CC(C)C[C@H](N)CC(=O)N[C@@H](CCCCN)CC(=O)N[C@H](CC(=O)N[C@H](CC(=O)N[C@@H](CCCCN)CC(=O)N[C@H](CC(=O)N[C@H](CC(=O)N[C@@H](CCCCN)CC(=O)N[C@H](CC(=O)O)CC(C)C)CC(C)C)CC(C)C)CC(C)C)CC(C)C` [H-(β^3-HLeu-β^3-HLys-β^3-HLeu)3-OH, H-(b^3-HLeu-b^3-HLys-b^3-HLeu)3-OH] had an IC50 with K91 E. coli of 35 µM. In data set [1] (human, pH 7), this compound gave an HC50 at 1 h of over 100 µM. For `CC(C)C[C@@H](CC(=O)O)NC(=O)C[C@H](CCCCN)NC(=O)C[C@@H](NC(=O)C[C@H](CC(C)C)NC(=O)C[C@H](CCCCN)NC(=O)C[C@@H](NC(=O)C[C@H](CC(C)C)NC(=O)C[C@H](CCCCN)NC(=O)C[C@@H](NC(=O)C[C@H](CC(C)C)NC(=O)C[C@H](CCCCN)NC(=O)C[C@@H](N)C(C)C)C(C)C)C(C)C)C(C)C` [H-(β^3-HVal-β^3-HLys-β^3-HLeu)4-OH, H-(b^3-HVal-b^3-HLys-b^3-HLeu)4-OH], in that order: 2.1 µM and 4.2 µM. In the data set with K91 E. coli, `CC(C)C[C@H](N)CC(=O)N[C@@H](CCCCN)CC(=O)N[C@H](CC(=O)N[C@H](CC(=O)N[C@@H](CCCCN)CC(=O)N[C@H](CC(=O)O)CC(C)C)CC(C)C)CC(C)C` [H-(β^3-HLeu-β^3-HLys-β^3-HLeu)2-OH, H-(b^3-HLeu-b^3-HLys-b^3-HLeu)2-OH] had a concentration for half-maximal inhibition (IC50) of over 100 µM. In data set [1] (human, pH 7), this compound returned an HC50 at 1 h of over 100 µM. On to Polymyxin [reference compound], for which, in the data set on osmY-lux fusion, the “osmY gene fusion response” value is reported as “yes”. The “micF gene fusion response” value with micF-lux fusion is recorded as “yes”.

In the data set with K91 E. coli, `CC(C)C[C@@H](CC(=O)O)NC(=O)C[C@H](CCCCN)NC(=O)C[C@@H](NC(=O)C[C@H](CC(C)C)NC(=O)C[C@H](CCCCN)NC(=O)C[C@@H](N)C(C)C)C(C)C` [H-(β^3-HVal-β^3-HLys-β^3-HLeu)2-OH, H-(b^3-HVal-b^3-HLys-b^3-HLeu)2-OH] had a half-inhibitory concentration (IC50) of over 100 µM. The compound further returned an HC50 at 1 h in data set [1] (human, pH 7) of over 100 µM. In the case of Magainin 2, in data set [3], the “MIC*” value is 5 µM. As for “Cecropin B (KWKVFKKIEKMGRNIRNGIVKAGPAIAVLGEAKAL; ends and bridges not checked; UniProt P01508 27-61, looked up) [known polycationic natural peptide]”, in data set [3], the “MIC*” value is 0.1 µM. `CC(C)C[C@H](N)CC(=O)N[C@@H](CCCCN)CC(=O)N[C@H](CC(=O)N[C@H](CC(=O)N[C@@H](CCCCN)CC(=O)N[C@H](CC(=O)N[C@H](CC(=O)N[C@@H](CCCCN)CC(=O)N[C@H](CC(=O)N[C@H](CC(=O)N[C@@H](CCCCN)CC(=O)N[C@H](CC(=O)N[C@H](CC(=O)N[C@@H](CCCCN)CC(=O)N[C@H](CC(=O)N[C@H](CC(=O)N[C@@H](CCCCN)CC(=O)N[C@H](CC(=O)O)CC(C)C)CC(C)C)CC(C)C)CC(C)C)CC(C)C)CC(C)C)CC(C)C)CC(C)C)CC(C)C)CC(C)C)CC(C)C` [H-(β^3-HLeu-β^3-HLys-β^3-HLeu)6-OH, H-(b^3-HLeu-b^3-HLys-b^3-HLeu)6-OH] yielded an HC50 at 1 h in data set [1] (human, pH 7) of 0.081 µM. The “HD50+” value in data set [2] came out at 0.081.

On to Polymyxin E, for which, in data set [3], the “MIC*” value was 0.15 µM.

The values are drawn from US6677431B2, “Design, preparation, and properties of antibacterial β-peptides” (The Trustees of the University of Pennsylvania, priority 1999, dated 2004).
